From patent US20080070924A1 (priority 2003, published 2008)
Where two headings read alike, the source gives them in different places.

Key:
[1] = tested on: ricinus oil-induced diarrhea; settings: in vivo; for effect on ricinus oil-induced diarrhea: sc
[2] = tested on: opioid-induced PCO2 increases; settings: guinea pig, in vivo
[3] = tested on: acetone-induced lifting behaviour; test: Tolerance in a chronic neuropathic pain model (CCI gerbils, acetone spray test); format: in vivo
morphine-induced emesis = test: Inhibition of morphine-induced emesis in ferrets
[4] = tested on: ricinus oil-induced diarrhea; test: whole plant or invertebrate; settings: in Meriones unguiculatus, sc, 8 h, read-out: ED50 of the opioid to postpone the ricinus oil-induced diarrhea
[5] = tested on: opioid-induced PCO2 increases; settings: rat, in vivo, sc
charcoal propulsion [6] = tested on: charcoal propulsion; parameters: species or system rats; settings: rat, in vivo
[7] = tested on: ricinus oil-induced diarrhea; settings: rat, in vivo
charcoal propulsion [8] = settings: in vivo
[9] = tested on: opioid-induced PCO2 increases; settings: in vivo

COc1ccc2c3c1O[C@H]1[C@@H](O)C=C[C@H]4[C@@H](C2)N(C)CC[C@@]341 [Codeine, codeine]
effect on ricinus oil-induced diarrhea [1]: dose-dependent inhibition

CN1CC[C@]23c4c5ccc(O)c4O[C@H]2[C@@H](O)C=C[C@H]3[C@H]1C5 [Morphine, morphine]
PCO2 after opioid ([2]; sc): increase in PCO2 | acetone-induced lifting behaviour, acute effect ([3]; 2.5 mg/kg i.p. twice daily): acutely reduced | acetone-induced lifting behaviour at day 7 ([3]; 2.5 mg/kg i.p. twice daily, reductions of activity from the second day onwards): no differences with the controls | doses causing central side-effects (morphine-induced emesis; i.p.): > 0.8 mg/kg | emesis on increasing the dose from 0.4 to 0.8 mg/kg (morphine-induced emesis; i.p.): more animals with emesis and increased frequencies of periods of emesis, retches and vomiting | ED50 [4]: 0.72 mg/kg | effect on ricinus oil-induced diarrhea [1]: dose-dependent inhibition | PCO2 after opioid [5]: increased levels of PCO2 | charcoal test result in rats compared with gerbils (charcoal propulsion [6]): comparable results | effect on ricinus oil-induced diarrhea ([7]; sc): dose-dependent inhibition

COc1ccc2c3c1O[C@H]1C(=O)CC[C@@]4(O)[C@@H](C2)N(C)CC[C@]314 [Oxycodone, oxycodone]
ED50 [4]: 5.02 mg/kg | effect on ricinus oil-induced diarrhea [1]: dose-dependent inhibition

(+)-(B)-trans-4-[1-[3,5-bis(trifluoromethyl)benzoyl]-2-(phenylmethyl)-4-piperidinyl]-N-(2,6-dimethylphenyl)-1-piperazine acetamide (L)-malic acid (1:1) [Compound 95]
effect on PCO2, given alone [2]: did not affect PCO2 values | effect on opioid-induced PCO2 levels [2]: reductions in the opioid-induced PCO2 levels | acetone-induced lifting behaviour, given alone ([3]; 2.5 mg/kg i.p. twice daily, 11 days, during some days of the experiment): limited activity | activity over the testing period, combination with morphine ([3]; 2.5 mg/kg morphine with 2.5 mg/kg Compound 95 i.p. twice daily, 11 days): the activity remained present over the entire testing period | effect of adding to the opioids on charcoal propulsion (charcoal propulsion [8]): did not affect the outcome of the opioids | effect on charcoal propulsion, given alone (charcoal propulsion [8]): inactive | effect on PCO2, given alone [9]: no effects were observed | effect on opioid-induced PCO2 levels [9]: significant decreases | frequency of retches, vomiting and periods of emesis (morphine-induced emesis; at 0.4 mg/kg morphine): non-significant tendency | number (frequency) of vomits (morphine-induced emesis; at 0.8 mg/kg morphine, 10 mg/kg Compound 95 i.p.): diminished significantly | number of retches (morphine-induced emesis; at 0.8 mg/kg morphine, 10 and 40 mg/kg i.p. Compound 95): significantly reduced | effect of adding to the opioids on their ED50s [1]: did not alter the ED50s of the opioids | effects on constipation, given alone [1]: minimal effects | effect on PCO2, given alone ([5]; 40 mg/kg): did not affect the PCO2 levels | effect on opioid-induced increases in PCO2 ([5]; 40 mg/kg): some attenuation | number of animals reaching high (>50 mm Hg) levels of PCO2 ([5]; 40 mg/kg): especially reduced | charcoal test result in rats compared with gerbils (charcoal propulsion [6]): comparable results | effect of adding to the opioids on their ED50s [7]: did not alter the ED50s of the opioids | effects on constipation, given alone [7]: minimal effects
